In patent US20190367516A1 (Bayer Pharma Aktiengesellschaft, priority 2015, published 2019):
Like-named read-outs stand apart in the source and are kept apart here.

Tests used:
human M2 receptor [1] = target: T1, human M2 receptor (Homo sapiens, UniProt P08172); assay type: cell-based; conditions: α >1 = positive cooperativity
T1 sequence (P08172 1-466): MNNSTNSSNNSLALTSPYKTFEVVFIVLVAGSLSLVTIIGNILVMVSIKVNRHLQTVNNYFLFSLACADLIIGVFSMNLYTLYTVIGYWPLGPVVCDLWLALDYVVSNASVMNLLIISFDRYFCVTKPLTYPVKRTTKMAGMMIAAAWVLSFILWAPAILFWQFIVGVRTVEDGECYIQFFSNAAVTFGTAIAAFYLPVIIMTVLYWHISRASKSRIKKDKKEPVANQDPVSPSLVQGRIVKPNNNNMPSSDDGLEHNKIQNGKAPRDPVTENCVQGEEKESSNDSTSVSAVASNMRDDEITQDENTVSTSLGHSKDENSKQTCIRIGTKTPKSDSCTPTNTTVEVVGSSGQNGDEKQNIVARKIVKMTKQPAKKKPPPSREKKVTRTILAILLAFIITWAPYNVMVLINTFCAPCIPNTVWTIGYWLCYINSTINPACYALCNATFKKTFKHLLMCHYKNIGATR

human M2 receptor [2] = target: T1, human M2 receptor; conditions: for Emax: read-out: Efficiency, boosting of the acetylcholine effect at EC20 acetylcholine concentration; for Efficiency: boosting of the acetylcholine effect at EC20 acetylcholine concentration
[3] = shift of acetylcholine dose-response curve (Allosteric EC50 shift)
[4] = Receptor activity EC50, allosteric potency at EC20 acetylcholine, M2-GIRK1/4 reporter cells, in some cases mean of two or more determinations
[5] = shift in the acetylcholine dose-response curve (Allosteric EC50 shift, GraphPad PRISM)
[6] = Receptor activity EC50, M2-GIRK1/4 activation test, acetylcholine at EC20, allosteric potency, in some cases mean values from two or more determinations

Row | Structure (SMILES) | Cooperativity (alpha factor) (human M2 receptor [1]; [3]) | Cooperativity (alpha factor) (human M2 receptor [1]; [5]) | EC50 (human M2 receptor [2]; [6]) [nM] | other results
1 | C[C@H]1CN(c2ccc3c(=O)c(C(=O)N[C@@H](C4CC4)C(F)(F)F)cn(-c4c(F)cc(F)cc4F)c3n2)C(=O)N1 [Example 449, N-[(1 S)-1-Cyclopropyl-2,2,2-trifluoroethyl]-7-[(4S)-4-methyl-2-oxoimidazolidin-1-yl]-4-oxo-1-(2,4,6-trifluorophenyl)-1,4-dihydro-1,8-naphthyridine-3-carboxamide] | 34 |  |  | EC50 (human M2 receptor [2]; [4]): 15 nM; Emax (human M2 receptor [2]; M2-GIRK1/4 reporter cells): 91%
2 | CC[C@H](NC(=O)c1cn(-c2c(F)cc(F)cc2F)c2nc(N3C[C@@H](C)NC3=O)ccc2c1=O)C(F)(F)F [Example 456, 7-[(4R)-4-Methyl-2-oxoimidazolidin-1-yl]-4-oxo-N-[(2S)-1,1,1-trifluorobutan-2-yl]-1-(2,4,6-trifluorophenyl)-1,4-dihydro-1,8-naphthyridine-3-carboxamide] | 32 |  |  | EC50 (human M2 receptor [2]; [4]): 9 nM; Emax (human M2 receptor [2]; M2-GIRK1/4 reporter cells): 92%
3 | O=C(Nc1c(Cl)cccc1Cl)c1cn(-c2ccc(F)cc2F)c2nc(N3C[C@@H](O)[C@H](O)C3)ccc2c1=O [Example 631, N-(2,6-Dichlorophenyl)-1-(2,4-difluorophenyl)-7-[(3R,4R)-3,4-dihydroxypyrrolidin-1-yl]-4-oxo-1,4-dihydro-1,8-naphthyridine-3-carboxamide] | 23 |  |  | EC50 (human M2 receptor [2]; [4]): 49 nM; Emax (human M2 receptor [2]; M2-GIRK1/4 reporter cells): 86%
4 | CC[C@@H](NC(=O)c1cn(-c2c(F)cccc2F)c2nc(N3CC4CC4(O)C3)ccc2c1=O)C(F)(F)F (single isomer, unassigned) [Example 306] |  | 21 | 52 | 
5 | O=C(NC(CC(F)(F)F)C1CC1)c1cn(-c2c(F)cc(F)cc2F)c2nc(N3C[C@@H](O)CC3=O)ccc2c1=O (single isomer, unassigned) [Example 514] | 30 |  |  | Efficiency (human M2 receptor [2]; M2-GIRK1/4 reporter cells): 99.0%; EC50 (human M2 receptor [2]; read-out: Receptor activity EC50, allosteric potency at EC20 acetylcholine, M2-GIRK1/4 reporter cells, in some cases mean of two or more determinations): 10 nM
6 | CC[C@@H](COC(F)(F)F)NC(=O)c1cn(-c2c(F)cc(F)cc2F)c2nc(N3C[C@@H](C)NC3=O)ccc2c1=O (single isomer, unassigned) [Example 455] | 17 |  |  | EC50 (human M2 receptor [2]; [4]): 10 nM; Efficiency (human M2 receptor [2]; M2-GIRK1/4 reporter cells): 100.0%
7 | CCC(NC(=O)c1cn(-c2c(F)cc(F)cc2F)c2nc(N3C[C@@H](O)CC3=O)ccc2c1=O)C(C)C (mixture of isomers) [Example 484, 7-[(4S)-4-Hydroxy-2-oxopyrrolidin-1-yl]-N-[2-methylpentan-3-yl]-4-oxo-1-(2,4,6-trifluorophenyl)-1,4-dihydro-1,8-naphthyridine-3-carboxamide] | 44 |  |  | EC50 (human M2 receptor [2]; [4]): 6 nM; Emax (human M2 receptor [2]; M2-GIRK1/4 reporter cells): 99.5%
8 | CN(CC(=O)O)c1ccc2c(=O)c(C(=O)N[C@@H](C3CC3)C(F)(F)F)cn(-c3c(F)cc(F)cc3F)c2n1 [Example 385, N-[6-{[(1S)-1-Cyclopropyl-2,2,2-trifluoroethyl]carbamoyl}-5-oxo-8-(2,4,6-trifluorophenyl)-5,8-dihydro-1,8-naphthyridin-2-yl]-N-methylglycine] |  | 11 | 68 | 
9 | CC[C@@H](NC(=O)c1cn(-c2ccc(F)cc2F)c2nc(N3CC(C)CC3=O)ccc2c1=O)C(F)(F)F (mixture of isomers) [Example 301, 1-(2,4-Difluorophenyl)-7-[4-methyl-2-oxopyrrolidin-1-yl]-4-oxo-N-[(2R)-1,1,1-trifluorobutan-2-yl]-1,4-dihydro-1,8-naphthyridine-3-carboxamide] |  | 12 | 30 | 
10 | CN(C)c1ccc2c(=O)c(C(=O)NC(C(C)(C)C)C(F)(F)F)cn(-c3ccc(F)cc3F)c2n1 (stereo in doubt) [Example 132, 1-(2,4-Difluorophenyl)-7-(dimethylamino)-4-oxo-N-[(2S)-1,1,1-trifluoro-3,3-dimethylbutan-2-yl]-1,4-dihydro-1,8-naphthyridine-3-carboxamide] |  | 7 | 10 | 
11 | CC12CCC(NC(=O)c3cn(-c4ccc(F)cc4F)c4nc(NCC(F)(F)F)ccc4c3=O)(CC1)CC2 [Example 98, 1-(2,4-Difluorophenyl)-N-(4-methylbicyclo[2.2.2]oct-1-yl)-4-oxo-7-[(2,2,2-trifluoroethyl)amino]-1,4-dihydro-1,8-naphthyridine-3-carboxamide] |  | 14 | 61 | 
12 | CC(C)(C)[C@@H](NC(=O)c1cn(-c2c(F)cc(F)cc2F)c2nc(N3C[C@@H](O)CC3=O)ccc2c1=O)C(F)(F)F [Example 357, 7-[(4S)-4-Hydroxy-2-oxopyrrolidin-1-yl]-4-oxo-N-[(2R)-1,1,1-trifluoro-3,3-dimethylbutan-2-yl]-1-(2,4,6-trifluorophenyl)-1,4-dihydro-1,8-naphthyridine-3-carboxamide] |  | 63 | 4 | 
13 | CCC(NC(=O)c1cn(-c2ccccc2F)c2nc(N(C)C)ccc2c1=O)C(F)(F)F (racemic) [Example 204, rac-7-(Dimethylamino)-1-(2-fluorophenyl)-4-oxo-N-[1,1,1-trifluorobutan-2-yl]-1,4-dihydro-1,8-naphthyridine-3-carboxamide] |  | 8 | 34 | 
14 | O=C(Nc1c(Cl)cccc1Cl)c1cn(-c2ccc(F)cc2F)c2nc(NCC(F)(F)F)ccc2c1=O [Example 163, N-(2,6-Dichlorophenyl)-1-(2,4-difluorophenyl)-4-oxo-7-[(2,2,2-trifluoroethyl)amino]-1,4-dihydro-1,8-naphthyridine-3-carboxamide] |  | 13 | 173 | 
15 | CCN1CCCN(c2ccc3c(=O)c(C(=O)N[C@@H](C4CC4)C(F)(F)F)cn(-c4c(F)cc(F)cc4F)c3n2)C1=O [Example 539, N-[(1S)-1-Cyclopropyl-2,2,2-trifluoroethyl]-7-(3-ethyl-2-oxotetrahydropyrimidin-1(2H)-yl)-4-oxo-1-(2,4,6-trifluorophenyl)-1,4-dihydro-1,8-naphthyridine-3-carboxamide] | 21 |  |  | EC50 (human M2 receptor [2]; [4]): 7 nM; Emax (human M2 receptor [2]; M2-GIRK1/4 reporter cells): 86.5%
16 | O=C(NC1(C(F)(F)F)CCCC1)c1cn(-c2c(F)cc(F)cc2F)c2nc(N3C[C@@H](O)[C@H](O)C3)ccc2c1=O [Example 350, 7-[(3R,4R)-3,4-Dihydroxypyrrolidin-1-yl]-4-oxo-N-[1-(trifluoromethyl)cyclopentyl]-1-(2,4,6-trifluorophenyl)-1,4-dihydro-1,8-naphthyridine-3-carboxamide] |  | 42 | 6 | 
17 | CC[C@@H](NC(=O)c1cn(-c2c(F)cccc2F)c2nc(N3CC4CC4(O)C3)ccc2c1=O)C(F)(F)F (mixture of isomers) [Example 304, 1-(2,6-Difluorophenyl)-7-[1-hydroxy-3-azabicyclo[3.1.0]hex-3-yl]-4-oxo-N-[(2R)-1,1,1-trifluorobutan-2-yl]-1,4-dihydro-1,8-naphthyridine-3-carboxamide] |  | 24 | 9 | 
18 | O=C(NC(c1c(F)cccc1F)C(F)(F)F)c1cn(-c2ccc(F)cc2F)c2nc(N3CC[C@H](F)C3)ccc2c1=O (single isomer, unassigned) [Example 242] |  | 10 | 90 | 
19 | CC[C@@H](NC(=O)c1cn(-c2c(F)cccc2Cl)c2nc(N3C[C@@H](O)CC3=O)ccc2c1=O)C(F)(F)F [Example 307, 1-(2-Chloro-6-fluorophenyl)-7-[(4S)-4-hydroxy-2-oxopyrrolidin-1-yl]-4-oxo-N-[(2R)-1,1,1-trifluorobutan-2-yl]-1,4-dihydro-1,8-naphthyridine-3-carboxamide] |  | 36 | 14 | 
20 | CC[C@@H](NC(=O)c1cn(-c2ccc(F)cc2F)c2nc(N3CCC(C)(O)C3=O)ccc2c1=O)C(F)(F)F (mixture of isomers) [Example 194, 1-(2,4-Difluorophenyl)-7-[3-hydroxy-3-methyl-2-oxopyrrolidin-1-yl]-4-oxo-N-[(2R)-1,1,1-trifluorobutan-2-yl]-1,4-dihydro-1,8-naphthyridine-3-carboxamide] |  | 16 | 140 | 
21 | CC[C@@H](NC(=O)c1cn(-c2ccc(F)cc2F)c2nc(N3CC4CC4(O)C3)ccc2c1=O)C(F)(F)F (single isomer, unassigned) [Example 314] |  | 24 | 27 | 
22 | C[C@H](NC(=O)c1cn(-c2c(F)cccc2F)c2nc(N3C[C@@H](O)CC3=O)ccc2c1=O)C(F)(F)F [Example 329, 1-(2,6-Difluorophenyl)-7-[(4S)-4-hydroxy-2-oxopyrrolidin-1-yl]-4-oxo-N-[(2S)-1,1,1-trifluoropropan-2-yl]-1,4-dihydro-1,8-naphthyridine-3-carboxamide] |  | 16 | 76 | 
23 | CC[C@@H](NC(=O)c1cn(-c2ccc(F)cc2F)c2nc(N3CCC(O)C3=O)ccc2c1=O)C(F)(F)F (single isomer, unassigned) [Example 226] |  | 35 | 83 | 
